For one assay, the system named is pJNK in HCT-116 cells. Description: Phospho-JNK (Thr183/Tyr185) Meso Scale ELISA assay, TNFα-stimulated HCT-116 cells. The class given is cell-based. The settings on record: Homo sapiens, read-out: mean HCT-116 pJNK ELISA IC50 (Col. B). As for the experimental part:
Detailed below are ELISA assays for pJNK and p38, and a TAK1 biochemical assay. […] In Table 1, Col.
Phospho-JNK (Thr183/Tyr185) Meso Scale ELISA Assay
• 1. Plate HCT-116 cells at 25,000 per well in 100 uL in 96 well clear dishes in normal growth medium. Day 2: • 1. Aspirate medium and replace with 90 μl reduced serum growth medium (1% FCS), incubate for 2 hours at 37° C. • 2. Make drugs at 10× in reduced serum medium and add 10 uL per well. • 3. Incubate at 37° C. for 4 hrs. • 4. Bring capture plates to room temperature. • 5. Block with 150 μl Blocking Solution (provided with kit) (600 mg Blocker A into 20 mL 1× Wash Buffer per plate) at room temperature with shaking. • 6. Wash plates 4× with 200 μl 1× wash buffer (10× provided with kit) before transferring lysates. • 7. Dilute TNFα to […] in reduced serum medium (this makes a 10× working stock). • 8. Add 10 μl TNFα to all wells except negative control wells, final concentration is 10 ng/mL. • 9. Incubate at 37° C. for 10 minutes. • 10. Remove medium by flicking into sink • 11. Wash cells with 100 uL ice cold PBS. • 12. Remove PBS by flicking into sink and patting on paper towels. • 13. Lyse cells in 50 μl ice cold 1× Complete Lysis Buffer plus Phosphatase and Protease inhibitors (all provided with kit) (10 mL Tris Lysis Buffer+200 μl Protease inhibitor solution+100 μl Phosphatase inhibitor I+100 μl Phosphatase inhibitor II). • 14. Incubate with shaking at 4° C. for 30 minutes. • 15. Transfer 45 μl to capture plate, cover with adhesive cover, and incubate at 4° C. over night with shaking. • Day 3: • 1. Wash plates 4× with 200 μl 1× wash buffer (10× provided with kit). • 2. […] Incubate at room temperature with shaking for 1 hour. • 4. Wash 4× with 200 μl 1× Wash Buffer. • 5. […] Read on Sector Imager. Phospho-p38 Meso Scale ELISA Assay Day 1: • 1. Plate HCT-116 cells at 25,000 per well in 100 uL in 96 well clear dishes in normal growth medium. zday 2: • 1. Aspirate medium and replace with 90 μl reduced serum growth medium (1% FCS), incubate for 2 hours at 37° C. • 2. Make drugs at 10× in reduced serum medium and add 10 uL per well. • 3. Incubate at 37° C. for 4 hrs. • 4. Bring capture plates to room temperature. • 5. Block with 150 μl Blocking Solution (provided with kit) (600 mg Blocker A into 20 mL 1× Wash Buffer per plate) at room temperature with shaking. • 6. Wash plates 4× with 200 μl 1× wash buffer (10× provided with kit) before transferring lysates. • 7. Dilute TNFα to […] in reduced serum medium (this makes a 10× working stock). • 8. Add 10 μl TNFα to all wells except negative control wells, final concentration is 10 ng/mL. • 9. Incubate at 37° C. for 10 minutes. • 10. Remove medium by flicking into sink • 11. Wash cells with 100 uL ice cold PBS. • 12. Remove PBS by flicking into sink and patting on paper towels. • 13. Lyse cells in 50 μl ice cold 1× Complete Lysis Buffer plus phosphatase and protease inhibitors (all provided with kit) (10 mL Tris Lysis Buffer+200 μl Protease inhibitor solution+100 μl Phosphatase inhibitor I+100 μl Phosphatase inhibitor II). • 14. Incubate with shaking at 4° C. for 30 minutes. • 15. Dilute lysates before transferring to capture plate with 100 μl Complete p38 Lysate • Dilution Buffer (provided with kit) (10 mL of Diluent 20±200 μl Protease inhibitor solution+100 μl Phosphatase inhibitor I+100 μl Phosphatase inhibitor II). • 16. Transfer 50 μl of diluted lysates to capture plate, cover with adhesive cover, and incubate at 4° C. over night with shaking. Day 3: • 1. Wash plates 4× with 200 μl 1× wash buffer (10× provided with kit). • 2. […] Incubate at room temperature with shaking for 1 hour. • 4. Wash 4× with 200 μl 1× Wash Buffer. • 5. […] Read on Sector Imager. TAK1 Biochemical Assay

For another assay, the target named is T1, TAK1-TAB1 fusion protein (Homo sapiens, UniProt O43318).
T1 construct: purchased Carna
T1 sequence (O43318 with tags, fused parts or gaps limits assumed): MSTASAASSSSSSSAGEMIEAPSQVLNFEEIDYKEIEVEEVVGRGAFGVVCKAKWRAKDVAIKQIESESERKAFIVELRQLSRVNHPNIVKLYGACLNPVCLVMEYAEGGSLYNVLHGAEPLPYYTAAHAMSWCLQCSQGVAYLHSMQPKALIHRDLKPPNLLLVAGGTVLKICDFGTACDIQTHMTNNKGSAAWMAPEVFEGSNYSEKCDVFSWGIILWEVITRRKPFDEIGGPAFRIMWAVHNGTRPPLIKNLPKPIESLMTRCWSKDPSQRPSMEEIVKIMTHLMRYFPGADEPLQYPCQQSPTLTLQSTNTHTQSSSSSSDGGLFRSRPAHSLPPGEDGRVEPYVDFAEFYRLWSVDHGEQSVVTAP
Description: TAK1 biochemical assay (AlphaScreen, GST-MAP2K7 substrate). (Bead proximity is the source of the signal in Alpha formats.)

Setting [1] is: TAK1-TAB1 fusion protein, GST-MAP2K7 substrate, read-out: mean TAK1 IC50 (Col. A).

Where a name gives a salt, the structure may show the parent alone. Read-outs that look alike come from different tables or passages of the source.

A word on the IC50: it is the midpoint of a concentration-inhibition curve. In the case of `CNc1ncc(-c2cnn([C@H]3CC[C@H](O)CC3)c2)c2cc(-c3cccc4nnsc34)oc12` [Example 284, trans-4-{4-{2-[2-(1,2,3-benzothiadiazol-7-yl)-7-(methylamino)furo[2,3-c]pyridin-4-yl]-1H-pyrazol-1-yl}cyclohexanol formate salt], the IC50 in the assay on pJNK in HCT-116 cells and at TAK1-TAB1 fusion protein (setting [1]) was below 100 nM throughout.

With `Nc1ncc(-c2cnn(C3CCN(C(=O)Nc4cccc5c4CCCC5)CC3)c2)c2cc(-c3cccc4cnsc34)oc12` [Example 340, 4-[4-(7-amino-2-benzo[d]isothiazol-7-yl-furo[2,3-c]pyridin-4-yl)-pyrazol-1-yl]-piperidine-1-carboxylic acid (5,6,7,8-tetrahydro-naphthalen-1-yl)-amide], the IC50 in the assay with pJNK in HCT-116 cells and on TAK1-TAB1 fusion protein (setting [1]) was 100 to 1000 nM each time.

`Nc1ncc(-c2cnn(C3CCN(C(=O)CCN4CCCCC4)CC3)c2)c2cc(-c3csc4cnccc34)oc12` [Example 332, 1-{4-[4-(7-amino-2-thieno[2,3-c]pyridin-3-yl-furo[2,3-c]pyridin-4-yl)-pyrazol-1-yl]-piperidin-1-yl}-3-piperidin-1-yl-propan-1-one]: the IC50 in the assay with pJNK in HCT-116 cells is 100 to 1000 nM; on TAK1-TAB1 fusion protein (setting [1]) it was below 100 nM.

Consider `Nc1ncc(-c2cnn([C@@H]3CCC[C@@H](O)C3)c2)c2cc(-c3csc4cnccc34)oc12` (relative stereo) [Example 309, trans-3-[4-(7-amino-2-thieno[2,3-c]pyridin-3-yl-furo[2,3-c]pyridin-4-yl)-pyrazol-1-yl]-cyclohexanol], for which the IC50 with pJNK in HCT-116 cells and on TAK1-TAB1 fusion protein (setting [1]) was below 100 nM each time.

For `CC(=O)N1CCC(n2cc(-c3cnc(N)c4oc(-c5csc6cnc(F)cc56)cc34)cn2)CC1` [Example 248, 1-(4-{4-[7-amino-2-(5-fluorothieno[2,3-c]pyridin-3-yl)furo[2,3-c]pyridin-4-yl]-1H-pyrazol-1-yl}piperidin-1-yl)ethanone bis(trifluoroacetate)], the IC50 in the assay on pJNK in HCT-116 cells and at TAK1-TAB1 fusion protein (setting [1]) was below 100 nM each time.

As to `CC(C)N1[C@@H]2CC[C@H]1C[C@H](n1cc(-c3cnc(N)c4oc(-c5csc6cnccc56)cc34)cn1)C2` [Example 329, 4-{1-[(3-exo)-8-(propan-2-yl)-8-azabicyclo[3.2.1]oct-3-yl]-1H-pyrazol-4-yl}-2-(thieno[2,3-c]pyridin-3-yl)furo[2,3-c]pyridin-7-amine], the values for the IC50 in the assay with pJNK in HCT-116 cells and at TAK1-TAB1 fusion protein (setting [1]) were 100 to 1000 nM and below 100 nM, respectively.

As to `Cc1cc(-c2cc3c(-c4cnn([C@H]5CC[C@H](O)CC5)c4)cnc(N)c3o2)c2snnc2c1` [Example 373, trans-4-{4-[7-amino-2-(5-methyl-1,2,3-benzothiadiazol-7-yl)furo[2,3-c]pyridin-4-yl]-1H-pyrazol-1-yl}cyclohexanol], the IC50 in the assay on pJNK in HCT-116 cells and on TAK1-TAB1 fusion protein (setting [1]) was below 100 nM in each case.

As to `Nc1cc(-c2cc3c(-c4cnn(C5CCNCC5)c4)cnc(N)c3o2)cnc1Cl` [Example 43, 2-(5-amino-6-chloropyridin-3-yl)-4-[1-(piperidin-4-yl)-1H-pyrazol-4-yl]furo[2,3-c]pyridine-7-amine], the concentration for half-maximal inhibition (IC50) on TAK1-TAB1 fusion protein (setting [1]) lay in the range of 100 to 1000 nM.

Consider `CC(=O)N1CCC(n2cc(-c3cnc(N)c4oc(-c5cccc(Oc6ccccc6)c5)cc34)cn2)CC1` [Example 186, 1-(4-{4-[7-amino-2-(3-phenoxyphenyl)furo[2,3-c]pyridin-4-yl]-1H-pyrazol-1-yl}piperidin-1-yl)ethanone], for which the IC50 at TAK1-TAB1 fusion protein (setting [1]) was above 10000 nM.

Regarding `Nc1ncc(-c2ccc(C(=O)O)s2)c2cc(-c3csc4cnccc34)oc12` [Example 381, 5-(7-amino-2-thieno[2,3-c]pyridin-3-yl-furo[2,3-c]pyridin-4-yl)-thiophene-2-carboxylic acid], on TAK1-TAB1 fusion protein (setting [1]), the IC50 lay in the range of 1000 to 10000 nM.

For `Cn1ccc(-c2cnc(N)c3oc(-c4csc5cnccc45)cc23)c1` [Example 389, 4-(1-methyl-1H-pyrrol-3-yl)-2-(thieno[2,3-c]pyridin-3-yl)furo[2,3-c]pyridin-7-amine trifluoroacetate], at TAK1-TAB1 fusion protein (setting [1]), the IC50 lay in the range of 1000 to 10000 nM.

For the compound `Nc1ncc(-c2cnn(C3CCNCC3)c2)c2cc(-c3cccc(OC(F)(F)F)c3)oc12` [Example 22, 4-[1-(piperidin-4-yl)-1H-pyrazol-4-yl]-2-[3-(trifluoromethoxy)phenyl]furo[2,3-c]pyridine-7-amine], the IC50 at TAK1-TAB1 fusion protein (setting [1]) was above 10000 nM.

In turn, `COc1nn(C)cc1-c1cnc(N)c2oc(-c3csc4cnccc34)cc12` [Example 343, 4-(3-methoxy-1-methyl-1H-pyrazol-4-yl)-2-thieno[2,3-c]pyridin-3-yl-furo[2,3-c]pyridin-7-ylamine] returned an IC50 against TAK1-TAB1 fusion protein of 100 to 1000 nM.

Turning to `CC(=O)N1CCC(n2cc(-c3cnc(N)c4oc(-c5cccc(OCc6cccc(Cl)c6)c5)cc34)cn2)CC1` [Example 201, 1-{4-[4-(7-amino-2-{3-[(3-chlorobenzyl)oxy]phenyl}furo[2,3-c]pyridin-4-yl)-1H-pyrazol-1-yl]piperidin-1-yl}ethanone], the IC50 at TAK1-TAB1 fusion protein (setting [1]) was above 10000 nM.

Take `CCOC(=O)COc1cccc(-c2cc3c(-c4cnn(C5CCN(C(C)=O)CC5)c4)cnc(N)c3o2)c1` [Example 211, ethyl (3-{4-[1-(1-acetylpiperidin-4-yl)-1H-pyrazol-4-yl]-7-aminofuro[2,3-c]pyridin-2-yl}phenoxy)acetate]: on TAK1-TAB1 fusion protein (setting [1]), the IC50 was above 10000 nM.

As to `CC(=O)N1CCC(n2cc(-c3cnc(N)c4oc(-c5csc6cncc(Cl)c56)cc34)cn2)CC1` [Example 255], the IC50 at TAK1-TAB1 fusion protein (setting [1]) lay within 1000 to 10000 nM.

In the case of `COc1cc2c(-c3cc4c(-c5cnn([C@H]6CC[C@H](O)CC6)c5)cnc(N)c4o3)csc2cn1` [Example 250, trans-4-{4-[7-amino-2-(5-methoxythieno[2,3-c]pyridin-3-yl)furo[2,3-c]pyridin-4-yl]-1H-pyrazol-1-yl}cyclohexanol bis(trifluoroacetate)], the IC50 at TAK1-TAB1 fusion protein (setting [1]) lay in the range of 1000 to 10000 nM.

As to `Nc1ncc(-c2cnn(C3CCCCC3)c2)c2cc(-c3cccc4cnccc34)oc12` [Example 73, 4-(1-cyclohexyl-1H-pyrazol-4-yl)-2-(isoquinolin-5-yl)furo[2,3-c]pyridin-7-amine], the IC50 on TAK1-TAB1 fusion protein (setting [1]) lay in the range of 1000 to 10000 nM.

With `C[C@]1(O)CC[C@H](n2cc(-c3cnc(N)c4oc(-c5cccc6cnccc56)cc34)cn2)CC1` [Example 75, trans-4-{4-[7-amino-2-(isoquinolin-5-yl)furo[2,3-c]pyridin-4-yl]-1H-pyrazol-1-yl}-1-methylcyclohexanol], the IC50 on TAK1-TAB1 fusion protein (setting [1]) lay in the range of 100 to 1000 nM.

As to `Cc1cc(-c2cnc(N)c3oc(-c4csc5cnccc45)cc23)c(C)s1` [Example 377, 4-(2,5-dimethyl-thiophen-3-yl)-2-thieno[2,3-c]pyridin-3-yl-furo[2,3-c]pyridin-7-ylamine], at TAK1-TAB1 fusion protein (setting [1]), the IC50 fell in the range of 1000 to 10000 nM.

The values are drawn from patent US8378104B2 (OSI Pharmaceuticals, LLC, priority 2010, dated 2013).
